16 compounds from ChEMBL document CHEMBL1909046, “DrugMatrix in vitro pharmacology data” can be followed below.

The target of assay [1] is T1, Calcitonin receptor (Homo sapiens, UniProt P30988). Note: in other assays of this panel Not Active means under 50% inhibition at 10 µM.
T1 sequence (P30988 whole entry): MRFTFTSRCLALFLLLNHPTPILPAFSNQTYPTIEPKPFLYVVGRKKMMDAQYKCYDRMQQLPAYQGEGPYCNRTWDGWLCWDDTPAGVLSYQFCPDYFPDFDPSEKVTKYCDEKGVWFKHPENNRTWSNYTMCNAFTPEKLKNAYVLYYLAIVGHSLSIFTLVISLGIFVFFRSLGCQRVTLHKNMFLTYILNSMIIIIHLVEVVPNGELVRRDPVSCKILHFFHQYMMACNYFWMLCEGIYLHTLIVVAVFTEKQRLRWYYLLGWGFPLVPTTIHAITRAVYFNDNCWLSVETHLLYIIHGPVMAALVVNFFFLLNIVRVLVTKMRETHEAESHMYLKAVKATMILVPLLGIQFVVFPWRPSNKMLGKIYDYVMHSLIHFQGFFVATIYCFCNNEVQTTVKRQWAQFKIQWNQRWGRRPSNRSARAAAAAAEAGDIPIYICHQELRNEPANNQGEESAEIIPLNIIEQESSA
The class given is cell membranes, Membrane. The following applies: t47d.

Assay [2] addresses T2, Endothelin-1 receptor (Homo sapiens, UniProt P25101).
T2 sequence (P25101 whole entry): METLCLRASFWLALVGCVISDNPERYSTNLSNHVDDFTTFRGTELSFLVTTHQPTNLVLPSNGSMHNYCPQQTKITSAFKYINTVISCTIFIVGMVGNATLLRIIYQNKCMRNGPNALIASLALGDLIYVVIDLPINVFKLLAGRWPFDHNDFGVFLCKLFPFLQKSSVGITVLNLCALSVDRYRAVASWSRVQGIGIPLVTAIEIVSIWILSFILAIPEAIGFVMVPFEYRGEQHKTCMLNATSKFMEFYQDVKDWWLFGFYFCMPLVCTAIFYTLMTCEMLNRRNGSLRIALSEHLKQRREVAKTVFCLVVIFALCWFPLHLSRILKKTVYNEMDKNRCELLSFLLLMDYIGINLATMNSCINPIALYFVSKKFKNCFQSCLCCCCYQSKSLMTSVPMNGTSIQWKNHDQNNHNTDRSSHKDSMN
Type of assay: cell membranes, Membrane. Particulars: cho-k1.

Assay [3] in a line: DRUGMATRIX: GABAA, Muscimol, Central radioligand binding (ligand: [3H] Muscimol). The class given is cell membranes, Rattus norvegicus, Wistar, Brain, Membrane. The following applies: Not Active = under 50% inhibition at 10 µM.
Assay [4] has as its target T3, Angiotensin-converting enzyme (Oryctolagus cuniculus, UniProt P12822).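 Note: enzymatic inhibition of angiotensin-converting enzyme measured with FAPGG as the substrate; in other assays of this panel Not Active means under 50% inhibition at 10 µM.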
T3 sequence (P12822 whole entry): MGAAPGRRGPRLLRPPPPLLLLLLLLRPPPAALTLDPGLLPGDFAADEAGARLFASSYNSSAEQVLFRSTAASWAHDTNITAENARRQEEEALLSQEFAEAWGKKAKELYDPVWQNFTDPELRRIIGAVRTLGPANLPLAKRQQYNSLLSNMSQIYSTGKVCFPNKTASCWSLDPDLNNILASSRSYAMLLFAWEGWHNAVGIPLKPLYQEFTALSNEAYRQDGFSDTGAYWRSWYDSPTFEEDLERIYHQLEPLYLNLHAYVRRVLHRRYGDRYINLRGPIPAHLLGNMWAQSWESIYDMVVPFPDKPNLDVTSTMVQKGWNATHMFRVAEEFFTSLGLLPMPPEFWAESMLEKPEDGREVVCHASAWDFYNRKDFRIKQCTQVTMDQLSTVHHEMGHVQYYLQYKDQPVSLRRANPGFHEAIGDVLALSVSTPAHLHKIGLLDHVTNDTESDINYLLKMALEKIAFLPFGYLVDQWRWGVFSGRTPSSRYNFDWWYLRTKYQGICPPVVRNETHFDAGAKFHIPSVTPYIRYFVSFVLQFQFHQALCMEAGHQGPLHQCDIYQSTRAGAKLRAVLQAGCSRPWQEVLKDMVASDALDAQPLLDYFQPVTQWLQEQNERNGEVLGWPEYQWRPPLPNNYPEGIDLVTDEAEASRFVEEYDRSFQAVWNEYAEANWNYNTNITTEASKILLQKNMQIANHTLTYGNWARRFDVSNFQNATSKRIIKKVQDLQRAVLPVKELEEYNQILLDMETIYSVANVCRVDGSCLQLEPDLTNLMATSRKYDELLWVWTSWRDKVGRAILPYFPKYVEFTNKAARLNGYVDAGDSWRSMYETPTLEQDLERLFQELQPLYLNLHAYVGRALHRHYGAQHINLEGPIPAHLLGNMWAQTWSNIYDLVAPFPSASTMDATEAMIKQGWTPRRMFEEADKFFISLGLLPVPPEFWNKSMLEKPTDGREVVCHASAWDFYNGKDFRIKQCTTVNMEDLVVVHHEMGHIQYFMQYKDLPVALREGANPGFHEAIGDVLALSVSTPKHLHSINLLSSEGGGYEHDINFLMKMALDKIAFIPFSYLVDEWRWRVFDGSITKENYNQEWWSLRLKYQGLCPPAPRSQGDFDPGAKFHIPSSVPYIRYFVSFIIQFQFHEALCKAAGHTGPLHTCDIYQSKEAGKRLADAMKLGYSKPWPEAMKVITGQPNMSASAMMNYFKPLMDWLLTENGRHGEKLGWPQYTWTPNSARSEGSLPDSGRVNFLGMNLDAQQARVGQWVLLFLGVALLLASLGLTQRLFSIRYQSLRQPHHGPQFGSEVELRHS
The assay can be described thus: biochemical. The class given is tissue-based, Lung.

The target in assay [5] is T4, Adenosine receptor A1 (Homo sapiens, UniProt P30542).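 Note: radioligand binding assay at the adenosine A1 receptor, with DPCPX serving as the labelled ligand; in other assays of this panel Not Active means under 50% inhibition at 10 µM.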
T4 sequence (P30542 whole entry): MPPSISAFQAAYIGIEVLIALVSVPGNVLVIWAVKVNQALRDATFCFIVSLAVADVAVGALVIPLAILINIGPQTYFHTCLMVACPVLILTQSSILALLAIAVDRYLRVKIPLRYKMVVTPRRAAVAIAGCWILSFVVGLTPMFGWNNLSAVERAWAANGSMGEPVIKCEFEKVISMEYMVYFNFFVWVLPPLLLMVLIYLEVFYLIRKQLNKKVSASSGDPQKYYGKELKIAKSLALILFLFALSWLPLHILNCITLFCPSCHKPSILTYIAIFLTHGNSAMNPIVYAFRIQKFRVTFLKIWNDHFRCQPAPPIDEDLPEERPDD
The class given is cell membranes, CHO, Membrane.

As usually defined, the IC50 is the concentration that gives 50% inhibition. As usually defined, the Ki is a dissociation constant, usually derived from enzyme kinetics or from competition with a known ligand.

As for `COc1ccc2cc(CC(=O)O)ccc2c1`, the IC50 result in assay [1], in assay [2], in assay [3], in assay [4] and in assay [5] (cho) was “Not Active” in each case. The Ki result in assay [3] is reported as “Not Active”.
With `CC(C)NC[C@H](O)COc1cccc2[nH]ccc12`, the IC50 result in assay [1], in assay [2], in assay [3], in assay [4] and in assay [5] (cho) was “Not Active” throughout. The Ki entry in assay [3] was “Not Active”.
As for `c1ccc2c(c1)cc1ccc3cccc4ccc2c1c34`, the IC50 entry in assay [1], in assay [2], in assay [3], in assay [4] and in assay [5] (cho) was “Not Active” in each case. For the same compound, in assay [3], the Ki entry is listed as “Not Active”.
For `CC=CC(=O)N(CC)c1ccccc1C`, the IC50 result in assay [1], in assay [2], in assay [3], in assay [4] and in assay [5] (cho) was “Not Active” each time. In addition, in assay [3], the Ki result was “Not Active”.
`C=C1C(=O)O[C@@H]2C3O[C@]3(C)CC/C=C(\C)CC[C@@H]12` (some centres not stated): the IC50 entry in assay [1], in assay [2], in assay [3], in assay [4] and in assay [5] (cho) was “Not Active” each time. Also, in assay [3], the inhibition constant (Ki) entry is “Not Active”.
With `CC(/C=C1\SC(=S)N(CC(=O)O)C1=O)=C\c1ccccc1`, the IC50 result in assay [1], in assay [2], in assay [3], in assay [4] and in assay [5] (cho) was “Not Active” each time. Also, the Ki result in assay [3] is reported as “Not Active”.
For `CCCCCCCCCc1ccc(O)cc1` [4-NONYLPHENOL], the IC50 entry in assay [1], in assay [2], in assay [3], in assay [4] and in assay [5] (cho) was “Not Active” in each case. In addition, the Ki entry in assay [3] was “Not Active”.
For `COc1ccc2c(c1)c(CC(=O)OCC(=O)O)c(C)n2C(=O)c1ccc(Cl)cc1` [ACEMETACIN], the 50% inhibitory concentration (IC50) entry in assay [1], in assay [2], in assay [3], in assay [4] and in assay [5] (cho) was “Not Active” each time. Moreover, the Ki entry in assay [3] is given as “Not Active”.
Turning to `CCCSc1ccc2nc(NC(=O)OC)[nH]c2c1` [ALBENDAZOLE], the IC50 entry in assay [1], in assay [2], in assay [3], in assay [4] and in assay [5] (cho) was “Not Active” throughout. Also, the Ki result in assay [3] is reported as “Not Active”.
In the case of `Cc1[nH]cnc1CN1CCc2c(c3ccccc3n2C)C1=O` [ALOSETRON], the IC50 entry in assay [1], in assay [2], in assay [3], in assay [4] and in assay [5] (cho) was “Not Active” throughout. Also, the Ki entry in assay [3] is “Not Active”.
Consider `O=c1cc(-c2ccccc2)oc2c1ccc1ccccc12` [ALPHA-NAPHTHOFLAVONE], for which the IC50 result is “Not Active” in assay [1]; “Not Active” in assay [2]; “Not Active” in assay [3]; “Not Active” in assay [4]; 1130 nM in assay [5] (read-out: IC50). Besides, the Ki result was “Not Active” in assay [3] and 661 nM in assay [5] (read-out: Ki).
Turning to `NCC[C@H](O)C(=O)N[C@@H]1C[C@H](N)[C@@H](O[C@H]2O[C@H](CN)[C@@H](O)[C@H](O)[C@H]2O)[C@H](O)[C@H]1O[C@H]1O[C@H](CO)[C@@H](O)[C@H](N)[C@H]1O` [AMIKACIN], the IC50 entry in assay [1], in assay [2], in assay [3], in assay [4] and in assay [5] (cho) was “Not Active” throughout. Further, in assay [3], the Ki result was “Not Active”.
For `CC1(C)S[C@@H]2[C@H](NC(=O)[C@H](N)c3ccc(O)cc3)C(=O)N2[C@H]1C(=O)O` [AMOXICILLIN], the IC50 result in assay [1], in assay [2], in assay [3], in assay [4] and in assay [5] (cho) was “Not Active” each time. Moreover, the Ki entry in assay [3] is “Not Active”.
Consider `CCOC(=O)OC(C)OC1=C(C(=O)Nc2ccccn2)N(C)S(=O)(=O)c2ccccc21` (configuration not stated) [AMPIROXICAM], for which the IC50 result in assay [1], in assay [2], in assay [3], in assay [4] and in assay [5] (cho) was “Not Active” throughout. Moreover, the Ki entry in assay [3] is “Not Active”.
Turning to `N#C[C@H](O[C@@H]1O[C@H](CO[C@@H]2O[C@H](CO)[C@@H](O)[C@H](O)[C@H]2O)[C@@H](O)[C@H](O)[C@H]1O)c1ccccc1` [AMYGDALIN], the IC50 result in assay [1], in assay [2], in assay [3], in assay [4] and in assay [5] (cho) was “Not Active” each time. Also, in assay [3], the Ki result is recorded as “Not Active”.
With `N=C(N)NCCCCNC(=N)N.O=S(=O)(O)O` [ARCAINE SULFATE], the IC50 result in assay [1], in assay [2], in assay [3], in assay [4] and in assay [5] (cho) was “Not Active” throughout. The Ki result in assay [3] is reported as “Not Active”.
